Where “and” joins values, the source holds several entries; their conditions need not be identical. Equal values may be shown once.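 Five compound concentrations were applied to cells in 96-well plates for 48 hours; endpoints were derived by simple linear interpolation of the resulting dose-response curve. The concentration for 50% growth inhibition is given as GI50. TGI: concentration producing complete growth inhibition.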
What was measured:
Test in all cases: NCI anticancer screen, dose series, 48 h
[1] = system: CCRF-CEM leukemia
[2] = system: K-562 leukemia
[3] = system: MDA-MB-231 breast
[4] = system: SW-620 colon
[5] = system: RXF 393 renal
[6] = system: HT29 colon
[7] = system: DU-145 prostate
[8] = system: HS 578T breast
[9] = system: NCI-H460 lung
[10] = system: OVCAR-4 ovarian
[11] = system: HOP-92 NSCLC
[12] = system: HCT-116 colon
[13] = system: SNB-75 CNS
[14] = system: BT-549 breast
[15] = system: MDA-N
[16] = system: SF-295 CNS
[17] = system: NCI-H522 lung
[18] = system: SF-539 CNS
[19] = system: HOP-62 NSCLC
[20] = system: SK-MEL-5 melanoma
[21] = system: IGROV1 ovarian
[22] = system: MCF7 breast
[23] = system: HL-60(TB) leukemia
[24] = system: UO-31 renal
[25] = system: SK-MEL-28 melanoma
[26] = system: EKVX NSCLC
[27] = system: SF-268 CNS
[28] = system: NCI/ADR-RES ovarian
[29] = system: ACHN renal
[30] = system: SK-MEL-2 melanoma
[31] = system: RPMI-8226 leukemia
[32] = system: UACC-257 melanoma
[33] = system: A498 renal
[34] = system: OVCAR-8 ovarian
[35] = system: SK-OV-3 ovarian
[36] = system: MOLT-4 leukemia
[37] = system: UACC-62 melanoma
[38] = system: A549 NSCLC
[39] = system: PC-3 prostate
[40] = system: MALME-3M melanoma
[41] = system: LOX IMVI melanoma
[42] = system: NCI-H226 lung
[43] = system: COLO 205 colon
[44] = system: SN12C renal
[45] = system: HCT-15 colon
[46] = system: TK-10 renal
[47] = system: OVCAR-5 ovarian
[48] = system: CAKI-1 renal
[49] = system: NCI-H23 lung
[50] = system: M14 melanoma
[51] = system: MDA-MB-435
[52] = system: T-47D breast
[53] = system: 786-0 renal
[54] = system: KM12 colon
[55] = system: OVCAR-3 ovarian
[56] = system: U251 CNS
[57] = system: SNB-19 CNS

With `CC(CN(C)C)Nc1c2ccccc2nc2cccc([N+](=O)[O-])c12` (configuration not stated) the TGI [1] was 2870 nM, the TGI [2] was 764 nM and the TGI [3] was 2640 nM. It also gave a GI50 [4] of 306 nM, a TGI [4] of 11800 nM and a TGI [5] of 14900 nM. For the same molecule, the TGI [6] was 1020 nM and 413 nM, the GI50 [7] was 74.7 nM and < 21.9 nM and the TGI [7] was 11900 nM. The GI50 [8] was under 10 nM, the TGI [8] was under 10 nM and the GI50 [9] was 24.8 nM and < 11.1 nM. For the same molecule, the TGI [9] was 206 nM and 711 nM, the TGI [10] was 610 nM and 5210 nM and the GI50 [11] was 226 nM and 25.8 nM. The GI50 [12] was 26 nM and < 10 nM, the GI50 [13] was 342 nM and 43.1 nM and the TGI [13] was 1590 nM and 268 nM. The GI50 [14] was 540 nM, the TGI [14] was 1900 nM and the TGI [15] was 748 nM. For the same molecule, the GI50 [16] was 96.8 nM and < 10 nM, the TGI [17] was 111 nM and the GI50 [18] was 337 nM and < 37.8 nM. The TGI [18] was 1310 nM, the GI50 [19] was 120 nM and < 13 nM and the GI50 [20] was 71.5 nM and < 10 nM. For the same molecule, the TGI [21] was 10100 nM, the TGI [22] was 636 nM and the GI50 [23] was 18.2 nM. For the same molecule, the GI50 [24] was 188 nM and < 23.7 nM and the TGI [24] was 457 nM and 887 nM.
With `COc1nc(N(C)C)nc2c1n(C)c[n+]2C` the TGI [25] was over 100000 nM, the TGI [26] was over 100000 nM and the TGI [27] was over 100000 nM. It also gave a TGI [1] of over 100000 nM, a TGI [28] of over 100000 nM and a TGI [2] of over 100000 nM. For the same molecule, the TGI [29] was over 100000 nM, the TGI [3] was over 100000 nM and the TGI [4] was over 100000 nM. For the same molecule, the TGI [30] was over 100000 nM, the TGI [5] was over 100000 nM and the TGI [31] was over 100000 nM. It also gave a TGI [32] of over 100000 nM, a TGI [6] of over 100000 nM and a TGI [7] of over 100000 nM. The TGI [8] was over 100000 nM, the TGI [9] was over 100000 nM and the TGI [33] was over 100000 nM. The TGI [34] was over 100000 nM, the TGI [35] was over 100000 nM and the TGI [36] was over 100000 nM. For the same molecule, the TGI [11] was over 100000 nM, the TGI [12] was over 100000 nM and the TGI [13] was over 100000 nM. The TGI [14] was over 100000 nM, the TGI [37] was over 100000 nM and the TGI [38] was over 100000 nM. It also gave a TGI [39] of over 100000 nM, a TGI [40] of over 100000 nM and a TGI [41] of over 100000 nM. It also gave a TGI [42] of over 100000 nM, a TGI [43] of over 100000 nM and a TGI [44] of over 100000 nM. For the same molecule, the TGI [15] was over 100000 nM, the TGI [45] was over 100000 nM and the TGI [16] was over 100000 nM. The TGI [46] was over 100000 nM, the TGI [17] was over 100000 nM and the TGI [18] was over 100000 nM. The TGI [47] was over 100000 nM, the TGI [48] was over 100000 nM and the TGI [49] was over 100000 nM. For the same molecule, the TGI [19] was over 100000 nM, the TGI [20] was over 100000 nM and the TGI [50] was over 100000 nM. For the same molecule, the TGI [21] was over 100000 nM, the TGI [23] was over 100000 nM and the TGI [51] was over 100000 nM. For the same molecule, the TGI [52] was over 100000 nM, the TGI [53] was over 100000 nM and the TGI [24] was over 100000 nM. For the same molecule, the TGI [54] was over 100000 nM, the TGI [55] was over 100000 nM and the TGI [56] was over 100000 nM. It also gave a TGI [57] of over 100000 nM.
